Results from the NIST ThermoML archive (doi:10.1016/j.jct.2016.09.030).

Test: xn = mol fraction of the nth substance listed
Conditions: 100 kPa, Liquid; for viscosity: Concentric cylinders viscometry; for mass density: Vibrating tube method

CCOC(=O)CCC(=O)OCC [diethyl butanedioate] + CC(C)CCO
Conditions	mass density [kg/m3]	viscosity [mPa·s]
288.15 K, x1 = 0.1	845.17	3.582
288.15 K, x1 = 0.2	875.25	3.029
288.15 K, x1 = 0.3	902.72	2.76
288.15 K, x1 = 0.3999	927.82	2.625
288.15 K, x1 = 0.5	951.1	2.58
288.15 K, x1 = 0.5999	972.64	2.6
288.15 K, x1 = 0.7	992.67	2.667
288.15 K, x1 = 0.7999	1011.24	2.808
288.15 K, x1 = 0.9002	1028.55	2.943
288.15 K, x1 = 1	1044.83	3.195
293.15 K, x1 = 0.1	841.19	3.097
293.15 K, x1 = 0.2	871.04	2.621
293.15 K, x1 = 0.3	898.32	2.396
293.15 K, x1 = 0.3999	923.26	2.283
293.15 K, x1 = 0.5	946.4	2.25
293.15 K, x1 = 0.5999	967.82	2.271
293.15 K, x1 = 0.7	987.73	2.332
293.15 K, x1 = 0.7999	1006.2	2.455
293.15 K, x1 = 0.9002	1023.43	2.573
293.15 K, x1 = 1	1039.63	2.807
298.15 K, x1 = 0.1	837.19	2.712
298.15 K, x1 = 0.2	866.82	2.321
298.15 K, x1 = 0.3	893.91	2.139
298.15 K, x1 = 0.3999	918.7	2.053
298.15 K, x1 = 0.5	941.69	2.025
298.15 K, x1 = 0.5999	962.98	2.048
298.15 K, x1 = 0.7	982.79	2.103
298.15 K, x1 = 0.7999	1001.17	2.207
298.15 K, x1 = 0.9002	1018.32	2.308
298.15 K, x1 = 1	1034.44	2.491
303.15 K, x1 = 0.1	833.18	2.377
303.15 K, x1 = 0.2	862.59	2.056
303.15 K, x1 = 0.3	889.5	1.905
303.15 K, x1 = 0.3999	914.12	1.834
303.15 K, x1 = 0.5	936.98	1.817
303.15 K, x1 = 0.5999	958.15	1.838
303.15 K, x1 = 0.7	977.86	1.889
303.15 K, x1 = 0.7999	996.14	1.981
303.15 K, x1 = 0.9002	1013.2	2.069
303.15 K, x1 = 1	1029.25	2.229
308.15 K, x1 = 0.1	829.15	2.096
308.15 K, x1 = 0.2	858.35	1.831
308.15 K, x1 = 0.3	885.07	1.707
308.15 K, x1 = 0.3999	909.54	1.65
308.15 K, x1 = 0.5	932.26	1.638
308.15 K, x1 = 0.5999	953.31	1.661
308.15 K, x1 = 0.7	972.91	1.707
308.15 K, x1 = 0.7999	991.1	1.789
308.15 K, x1 = 0.9002	1008.09	1.868
308.15 K, x1 = 1	1024.08	2.008
313.15 K, x1 = 0.1	825.09	1.867
313.15 K, x1 = 0.2	854.08	1.649
313.15 K, x1 = 0.3	880.62	1.547
313.15 K, x1 = 0.3999	904.94	1.502
313.15 K, x1 = 0.5	927.52	1.496
313.15 K, x1 = 0.5999	948.47	1.518
313.15 K, x1 = 0.7	967.97	1.562
313.15 K, x1 = 0.7999	986.08	1.635
313.15 K, x1 = 0.9002	1002.99	1.706
313.15 K, x1 = 1	1018.9	1.821
318.15 K, x1 = 0.1	821.01	1.656
318.15 K, x1 = 0.2	849.79	1.475
318.15 K, x1 = 0.3	876.16	1.391
318.15 K, x1 = 0.3999	900.33	1.356
318.15 K, x1 = 0.5	922.78	1.354
318.15 K, x1 = 0.5999	943.61	1.377
318.15 K, x1 = 0.7	963.02	1.419
318.15 K, x1 = 0.7999	981.04	1.485
318.15 K, x1 = 0.9002	997.88	1.549
318.15 K, x1 = 1	1013.72	1.66
323.15 K, x1 = 0.1	816.9	1.496
323.15 K, x1 = 0.2	845.48	1.346
323.15 K, x1 = 0.3	871.68	1.271
323.15 K, x1 = 0.3999	895.7	1.247
323.15 K, x1 = 0.5	918.03	1.243
323.15 K, x1 = 0.5999	938.75	1.27
323.15 K, x1 = 0.7	958.06	1.308
323.15 K, x1 = 0.7999	975.99	1.369
323.15 K, x1 = 0.9002	992.76	1.428
323.15 K, x1 = 1	1008.55	1.523

CCOC(=O)CCC(=O)OCC [diethyl butanedioate] + CC(C)CO
Conditions	mass density [kg/m3]	viscosity [mPa·s]
288.15 K, x1 = 0.0999	844.65	3.284
288.15 K, x1 = 0.2	878.53	2.763
288.15 K, x1 = 0.3001	908.28	2.542
288.15 K, x1 = 0.4	934.67	2.473
288.15 K, x1 = 0.4999	958.02	2.477
288.15 K, x1 = 0.5999	978.97	2.546
288.15 K, x1 = 0.6999	997.81	2.625
288.15 K, x1 = 0.8	1014.88	2.774
288.15 K, x1 = 0.9	1030.48	2.962
288.15 K, x1 = 1	1044.83	3.195
293.15 K, x1 = 0.0999	840.5	2.816
293.15 K, x1 = 0.2	874.13	2.403
293.15 K, x1 = 0.3001	903.71	2.23
293.15 K, x1 = 0.4	929.94	2.177
293.15 K, x1 = 0.4999	953.16	2.186
293.15 K, x1 = 0.5999	974.02	2.249
293.15 K, x1 = 0.6999	992.78	2.32
293.15 K, x1 = 0.8	1009.79	2.45
293.15 K, x1 = 0.9	1025.33	2.611
293.15 K, x1 = 1	1039.63	2.807
298.15 K, x1 = 0.0999	836.33	2.443
298.15 K, x1 = 0.2	869.73	2.108
298.15 K, x1 = 0.3001	899.12	1.973
298.15 K, x1 = 0.4	925.2	1.931
298.15 K, x1 = 0.4999	948.31	1.947
298.15 K, x1 = 0.5999	969.07	2.004
298.15 K, x1 = 0.6999	987.75	2.073
298.15 K, x1 = 0.8	1004.7	2.184
298.15 K, x1 = 0.9	1020.18	2.322
298.15 K, x1 = 1	1034.44	2.491
303.15 K, x1 = 0.0999	832.13	2.135
303.15 K, x1 = 0.2	865.31	1.866
303.15 K, x1 = 0.3001	894.51	1.756
303.15 K, x1 = 0.4	920.45	1.73
303.15 K, x1 = 0.4999	943.44	1.747
303.15 K, x1 = 0.5999	964.11	1.802
303.15 K, x1 = 0.6999	982.72	1.864
303.15 K, x1 = 0.8	999.6	1.964
303.15 K, x1 = 0.9	1015.04	2.084
303.15 K, x1 = 1	1029.25	2.229
308.15 K, x1 = 0.0999	827.9	1.875
308.15 K, x1 = 0.2	860.85	1.659
308.15 K, x1 = 0.3001	889.88	1.574
308.15 K, x1 = 0.4	915.68	1.557
308.15 K, x1 = 0.4999	938.56	1.576
308.15 K, x1 = 0.5999	959.14	1.629
308.15 K, x1 = 0.6999	977.68	1.686
308.15 K, x1 = 0.8	994.51	1.775
308.15 K, x1 = 0.9	1009.9	1.882
308.15 K, x1 = 1	1024.08	2.008
313.15 K, x1 = 0.0999	823.63	1.657
313.15 K, x1 = 0.2	856.36	1.484
313.15 K, x1 = 0.3001	885.22	1.418
313.15 K, x1 = 0.4	910.89	1.409
313.15 K, x1 = 0.4999	933.67	1.43
313.15 K, x1 = 0.5999	954.16	1.48
313.15 K, x1 = 0.6999	972.64	1.534
313.15 K, x1 = 0.8	989.42	1.614
313.15 K, x1 = 0.9	1004.76	1.71
313.15 K, x1 = 1	1018.9	1.821
318.15 K, x1 = 0.0999	819.31	1.471
318.15 K, x1 = 0.2	851.84	1.334
318.15 K, x1 = 0.3001	880.53	1.283
318.15 K, x1 = 0.4	906.08	1.281
318.15 K, x1 = 0.4999	928.76	1.304
318.15 K, x1 = 0.5999	949.18	1.352
318.15 K, x1 = 0.6999	967.59	1.403
318.15 K, x1 = 0.8	984.32	1.476
318.15 K, x1 = 0.9	999.62	1.562
318.15 K, x1 = 1	1013.72	1.66
323.15 K, x1 = 0.0999	814.95	1.324
323.15 K, x1 = 0.2	847.28	1.218
323.15 K, x1 = 0.3001	875.82	1.175
323.15 K, x1 = 0.4	901.24	1.18
323.15 K, x1 = 0.4999	923.83	1.201
323.15 K, x1 = 0.5999	944.18	1.249
323.15 K, x1 = 0.6999	962.54	1.3
323.15 K, x1 = 0.8	979.22	1.366
323.15 K, x1 = 0.9	994.48	1.438
323.15 K, x1 = 1	1008.55	1.523
